From patent publication US20080182859A1 (Curis, Inc., priority 2006, published 2008)
Where a name gives a salt, the structure may show the parent alone.

What was measured:
sonic hedgehog pathway [1] = assay: Hedgehog pathway Gli-luciferase reporter assay, TM3 cells; type: cell-based; settings: TM3 mouse Leydig cells
From the text: (§1) Mouse (TM3: mouse Leydig cells; S12: mouse embryonic mesenchymal cells) and human (Daoy: human medulloblastoma cell; HepM: human embryonic palatal mesenchymal cell) cell lines are used to screen small molecules for their ability to modulate the activity of the sonic hedgehog pathway (Table 1, Table 2, and Table 3). Stable hedgehog pathway reporter cell lines are established by specific antibiotic selection following transfection of a reporter plasmid containing a luciferase gene located directly downstream from the gli promoter. Consequently, any observable changes in cellular luciferase activity may be attributed to changes in sonic hedgehog pathway activity in mouse and human cells, respectively, since gli is the major by-product of this pathway. To calculate activity, we generate an eleven point dose curve for each compound using 1:3 dilutions in 96 well assay plates. Each plate tested also contains low and high control to establish maximal pathway activation so to establish/compare a percentage activation of each tested compound (AMAX) on respective plates. Also we calculate EC50 values, or a concentration where the pathway will be exactly 50% activated, for each tested compound to determine potency. In these cell lines, compounds that register >20% AMAX values are considered active.
(§2) Stable hedgehog pathway reporter cell lines are established following specific antibiotic selection following transfection of a reporter plasmid In short, typically cells are plated in MicroTiter-plates at 10,000-20,000 cells per well, in growth media (containing 10%-20% FBS). After 48-72 hrs (HGL and DGL respectively) the media in the assay plates is switched to low-serum containing media (0.5% FBS). At that time compounds are added (at 1-5 μM) to the assay plates, in the presence or absence of hedgehog protein (octyl-modified version; 1-5 ng/ml). After another 24 hrs of incubation, the media from the assay plates is discarded and replaced with luciferase assay-mix. Subsequently, plates are incubated at RT for ˜15-30 mins and then read in a luminometer. [note: addition of the Hedgehog protein, although not critical, will sensitize the assay allowing the identification of weak actives].

sonic hedgehog pathway [2] = assay: Human hedgehog reporter assay Daoy-GliLuc (DGL); type: cell-based; settings: Daoy human medulloblastoma cells, Gli-luciferase reporter; read-out: Daoy Avg. EC50
From the text: as §1, §2

Row | Structure (SMILES) | EC50 (sonic hedgehog pathway [1]) [nM] | EC50 (sonic hedgehog pathway [2]) [nM]
1 | CN[C@H]1CC[C@@H](N(Cc2cc(-c3ccc(OC(F)(F)F)cc3)ccc2OC)C(=O)c2sc3ccccc3c2Cl)CC1 [Compound 307, 3-Chloro-benzo[b]thiophene-2-carboxylic acid (4-methoxy-4′-trifluoromethoxy-biphenyl-3-ylmethyl)-(4-methylamino-cyclohexyl)-amide hydrochloride] | < 50 | < 50
2 | CN[C@H]1CC[C@@H](N(Cc2cc(-c3ccc(Cl)cc3)ccc2OC)C(=O)c2sc3ccccc3c2Cl)CC1 [Compound 308, 3-Chloro-benzo[b]thiophene-2-carboxylic acid (4′-chloro-4-methoxy-biphenyl-3-ylmethyl)-(4-methylamino-cyclohexyl)-amide hydrochloride] | < 50 | < 50
3 | CCOc1ccc(-c2ccc(C(F)(F)F)cc2)cc1CN(C(=O)c1sc2ccccc2c1Cl)[C@H]1CC[C@@H](NC)CC1 [Compound 309, 3-Chloro-benzo[b]thiophene-2-carboxylic acid (4-ethoxy-4′-trifluoromethyl-biphenyl-3-ylmethyl)-(4-methylamino-cyclohexyl)-amide hydrochloride] | 50 to 250 | < 50
4 | CCOc1ccc(-c2ccc(OC)cc2)cc1CN(C(=O)c1sc2ccccc2c1Cl)[C@H]1CC[C@@H](NC)CC1 [Compound 312, 3-Chloro-benzo[b]thiophene-2-carboxylic acid (4-ethoxy-4′-methoxy-biphenyl-3-ylmethyl)-(4-methylamino-cyclohexyl)-amide hydrochloride] | – | 50 to 250
5 | CCOc1ccc(-c2ccccc2)cc1CN(C(=O)c1sc2ccccc2c1Cl)[C@H]1CC[C@@H](NC)CC1 [Compound 313, 3-Chloro-benzo[b]thiophene-2-carboxylic acid (4-ethoxy-biphenyl-3-ylmethyl)-(4-methylamino-cyclohexyl)-amide hydrochloride] | 50 to 250 | < 50
6 | CN[C@H]1CC[C@@H](N(Cc2cc(-c3ccc(F)cc3)ccc2OC)C(=O)c2sc3ccccc3c2Cl)CC1 [Compound 314, 3-Chloro-benzo[b]thiophene-2-carboxylic acid (4′-fluoro-4-methoxy-biphenyl-3-ylmethyl)-(4-methylamino-cyclohexyl)-amide hydrochloride] | < 50 | < 50
7 | CN[C@H]1CC[C@@H](N(Cc2cc(-c3cccc(C(C)=O)c3)ccc2OC)C(=O)c2sc3cccc(F)c3c2Cl)CC1 [Compound 363, 3-Chloro-4-fluoro-benzo[b]thiophene-2-carboxylic acid (3′-acetyl-4-methoxy-biphenyl-3-ylmethyl)-(4-methylamino-cyclohexyl)-amide hydrochloride] | < 50 | < 50
8 | CN[C@H]1CC[C@@H](N(Cc2cc(-c3ccc(C#N)cc3)ccc2OC)C(=O)c2sc3cccc(F)c3c2Cl)CC1 [Compound 366, 3-Chloro-4-fluoro-benzo[b]thiophene-2-carboxylic acid (4′-cyano-4-methoxy-biphenyl-3-ylmethyl)-(4-methylamino-cyclohexyl)-amide hydrochloride] | < 50 | < 50
9 | CCOc1ccc(-c2cnc(N(C)C)nc2)cc1CN(C(=O)c1sc2ccccc2c1Cl)[C@H]1CC[C@H](NC)CC1 [Compound 401, 3-Chloro-benzo[b]thiophene-2-carboxylic acid [5-(2-dimethylamino-pyrimidin-5-yl)-2-ethoxy-benzyl]-(4-methylamino-cyclohexyl)-amide dihydrochloride] | 1000 to 2500 | –
10 | CN[C@H]1CC[C@H](N(Cc2cc(-c3ccc(C(F)(F)F)cc3)ccc2F)C(=O)c2sc3ccccc3c2Cl)CC1 [Compound 422, 3-Chloro-benzo[b]thiophene-2-carboxylic acid (4-fluoro-4′-trifluoromethyl-biphenyl-3-ylmethyl)-(4-methylamino-cyclohexyl)-amide trifluoroacetate] | 250 to 1000 | –
11 | CNc1ccc(-c2ccc(F)c(CN(C(=O)c3sc4ccccc4c3Cl)[C@H]3CC[C@H](NC)CC3)c2)cc1 [Compound 432, 3-Chloro-benzo[b]thiophene-2-carboxylic acid (4-fluoro-4′-methylamino-biphenyl-3-ylmethyl)-(4-methylamino-cyclohexyl)-amide dihydrochloride] | 250 to 1000 | –

Now from value to molecule:

Row | EC50 (sonic hedgehog pathway [1]) [nM] | EC50 (sonic hedgehog pathway [2]) [nM] | Structure (SMILES)
12 | 50 to 250 | < 50 | CN[C@H]1CC[C@@H](N(Cc2cc(-c3ccc(C(F)(F)F)cc3)ccc2OC)C(=O)c2sc3ccccc3c2Cl)CC1 [Compound 306, 3-Chloro-benzo[b]thiophene-2-carboxylic acid (4-methoxy-4′-trifluoromethyl-biphenyl-3-ylmethyl)-(4-methylamino-cyclohexyl)-amide trifluoroacetate]
13 | 1000 to 2500 | 50 to 250 | CN[C@H]1CC[C@@H](N(Cc2cc(-c3cnc(N(C)C)nc3)ccc2OC)C(=O)c2sc3ccccc3c2Cl)CC1 [Compound 321, 3-Chloro-benzo[b]thiophene-2-carboxylic acid [5-(2-dimethylamino-pyrimidin-5-yl)-2-methoxy-benzyl]-(4-methylamino-cyclohexyl)-amide dihydrochloride]
14 | 250 to 1000 | 50 to 250 | CNc1ncc(-c2ccc(OC)c(CN(C(=O)c3sc4ccccc4c3Cl)[C@H]3CC[C@@H](NC)CC3)c2)cn1 [Compound 322, 3-Chloro-benzo[b]thiophene-2-carboxylic acid [2-methoxy-5-(2-methylamino-pyrimidin-5-yl)-benzyl]-(4-methylamino-cyclohexyl)-amide dihydrochloride]
15 | 50 to 250 | < 50 | CN[C@H]1CC[C@@H](N(Cc2cc(-c3cnc(N)nc3)ccc2OC)C(=O)c2sc3ccccc3c2Cl)CC1 [Compound 323, 3-Chloro-benzo[b]thiophene-2-carboxylic acid [5-(2-amino-pyrimidin-5-yl)-2-methoxy-benzyl]-(4-methylamino-cyclohexyl)-amide dihydrochloride]
16 | < 50 | < 50 | CN[C@H]1CC[C@@H](N(Cc2cc(-c3cccc(C#N)c3)ccc2OC)C(=O)c2sc3cccc(F)c3c2Cl)CC1 [Compound 365, 3-Chloro-4-fluoro-benzo[b]thiophene-2-carboxylic acid (3′-cyano-4-methoxy-biphenyl-3-ylmethyl)-(4-methylamino-cyclohexyl)-amide hydrochloride]
17 | < 50 | – | CN[C@H]1CC[C@H](N(Cc2cc(-c3ccnc(C(C)=O)c3)ccc2OC)C(=O)c2sc3c(F)ccc(F)c3c2Cl)CC1 [Compound 407, 3-Chloro-4,7-difluoro-benzo[b]thiophene-2-carboxylic acid [5-(2-acetyl-pyridin-4-yl)-2-methoxy-benzyl]-(4-methylamino-cyclohexyl)-amide dihydrochloride]
18 | 250 to 1000 | – | CN[C@H]1CC[C@H](N(Cc2cc(-c3ccc(OC)cc3)ccc2F)C(=O)c2sc3ccccc3c2Cl)CC1 [Compound 421, 3-Chloro-benzo[b]thiophene-2-carboxylic acid (4-fluoro-4′-methoxy-biphenyl-3-ylmethyl)-(4-methylamino-cyclohexyl)-amide trifluoroacetate]
19 | 250 to 1000 | – | CN[C@H]1CC[C@H](N(Cc2cc(-c3ccc(C)cc3)ccc2F)C(=O)c2sc3ccccc3c2Cl)CC1 [Compound 427, 3-Chloro-benzo[b]thiophene-2-carboxylic acid (4-fluoro-4′-methyl-biphenyl-3-ylmethyl)-(4-methylamino-cyclohexyl)-amide trifluoroacetate]
20 | 250 to 1000 | – | CN[C@H]1CC[C@H](N(Cc2cc(-c3ccc(Cl)cc3)ccc2F)C(=O)c2sc3ccccc3c2Cl)CC1 [Compound 428, 3-Chloro-benzo[b]thiophene-2-carboxylic acid (4′-chloro-4-fluoro-biphenyl-3-ylmethyl)-(4-methylamino-cyclohexyl)-amide trifluoroacetate]
21 | 1000 to 2500 | – | CN[C@H]1CC[C@H](N(Cc2cc(-c3ccc(NC(C)=O)cc3)ccc2F)C(=O)c2sc3ccccc3c2Cl)CC1 [Compound 429, 3-Chloro-benzo[b]thiophene-2-carboxylic acid (4′-acetylamino-4-fluoro-biphenyl-3-ylmethyl)-(4-methylamino-cyclohexyl)-amide trifluoroacetate]
22 | 1000 to 2500 | – | CN[C@H]1CC[C@H](N(Cc2cc(-c3ccc(N(C)C(C)=O)cc3)ccc2F)C(=O)c2sc3ccccc3c2Cl)CC1 [Compound 430, 3-Chloro-benzo[b]thiophene-2-carboxylic acid [4′-(acetyl-methyl-amino)-4-fluoro-biphenyl-3-ylmethyl]-(4-methylamino-cyclohexyl)-amide trifluoroacetate]
23 | 50 to 250 | – | CN[C@H]1CC[C@H](N(Cc2cc(-c3ccc(NC=O)cc3)ccc2F)C(=O)c2sc3ccccc3c2Cl)CC1 [Compound 431, 3-Chloro-benzo[b]thiophene-2-carboxylic acid (4-fluoro-4′-formylamino-biphenyl-3-ylmethyl)-(4-methylamino-cyclohexyl)-amide trifluoroacetate]
